Results: patent US20060201053A1, “Barrier preventing wood pest access to wooden structures” (priority 2000, published 2006)
Marks after values point to notes of the source that are not given here.

Tests used:
Type in all cases: physicochemical
[1] = Release rate of pesticides from controlled release devices, one inch squares of 1/8 inch sheets (Example 3)
Source text: Controlled release devices were made and tested to obtain their release rates. All thermoplastic polymers were formulated with 10 percent pesticide, 3 or 7 percent carbon black to absorb liquid pesticide, and 83 to 87 percent by weight of polymer and injection molded into thin sheets about ⅛ inch thick. […] The devices made from the remaining pesticides and thermoplastic polymers contained 7 percent of carbon black.
The devices made from S-113 urethane (a thermoset polymer) were made from a polymer mix containing 60% S-113, 40% castor oil and […] of TIPA catalyst by weight. The polymer mix comprised 90% of the total weight of the device. The pesticide, deltamethrin, comprised the remaining 10% of the device. No carbon black was used in this device. The polymer/pesticide mixture was cast into a ⅛ inch thick sheet and heated at about 60° C. for about 40 to 60 minutes to cure the cast sheet.
One inch squares were then cut from the thin sheets that were injection molded or cast and the squares were tested for release rates.

[2] = Effect of carbon black binding carrier on release rate (Example 6); settings: active chemical 5 wt. %, high density polyethylene (MA 778-000), 6 weeks after fabrication
Method: Release rates were measured at 6 weeks after fabrication wherein samples were wiped weekly to remove surface accumulation of released active chemical.

[3] = Release rate versus lambda cyhalothrin concentration and polymer combination (Example 4)
Method: An experiment was conducted to determine the effect of lambda cyhalothrin (pyrethroid) concentration and insecticide/polymer combination on release rate of insecticide from the polymer.

[4] = Release rate of lambda cyhalothrin from multi-layer barrier film
Source text: The release rate of bioactive chemicals from the bonding layer 126 to the other layers is greater than the release rate of bioactive chemicals from the barrier film 110 to the exterior of the barrier film 110.

[5] = Thermal decomposition of the pesticide during processing
Method: To have a safety cushion for operating conditions, it is beneficial to have a processing temperature of approximately 150° C.
(§1) The polymers evaluated included low melt polyethylene, polyurethane, two epoxies, silicone rubber, and a low melt polyethylene high in waxes to reduce thermal decomposition of the chlorpyrifos.

[6] = Release rate of 10 wt. % pyrethroid impregnated polymers (Example 5)
[7] = Release rate of chlorpyrifos from polymer devices (Example 1); settings: 50° C.
Method: Experiments were conducted to determine the release rate of chlorpyrifos. Loading rates for the insecticide were either 5 wt. % (weight percent) or 10 wt. % depending on the polymer. Release rates were determined for all devices at 50° C.
as §1
Release rates ranged from 10 μg/cm^2/day for the silicone rubber to 0.3 μg/cm^2/day for Epoxy B.

[8] = Release rate of pyrethrin from polymer systems (Example 2); settings: Pyrethrin I content 10%, 40° C.
Method: Studies were also conducted with similar polymer systems as in Example 1 but with 80% pure pyrethrin.

[9] = Polyethylene MA 778-000, 10 percent pesticide
[10] = Polyurethane 2200, 10 percent pesticide
[11] = Polyurethane 3100, 10 percent pesticide

With `CC1(C)[C@H](C(=O)O[C@H](C#N)c2cccc(Oc3ccccc3)c2)[C@@H]1/C=C(\Cl)C(F)(F)F` (racemic) [Lambda cyhalothrin] the “Release Rate” value ([1]; EVA 763, 10 percent pesticide) was 27.3 μg/cm^2/day, the “Release Rate” value [1, 9] was 4.6 μg/cm^2/day and the “Release Rate” value [1, 10] was 0.7 μg/cm^2/day. The “Release Rate” value [1, 11] was 0.4 μg/cm^2/day, the “Release Rate” value ([2]; carbon black 0 wt. %) was 1.78 μg/cm^2/day and the “Release Rate” value ([2]; carbon black 10 wt. %) was 0.81 μg/cm^2/day. The “Release Rate” value ([2]; carbon black 20 wt. %) was 0.61 μg/cm^2/day, the “Pyrethroid Release Rate” value ([3]; Ethylvinyl Acetate (EVA), pyrethroid 1 wt. %) was 0.3 mg/cm^2/da and the “Pyrethroid Release Rate” value ([3]; Ethylvinyl Acetate (EVA), pyrethroid 5 wt. %) was 2.2 mg/cm^2/da. For the same compound, the “Pyrethroid Release Rate” value ([3]; Ethylvinyl Acetate (EVA), pyrethroid 10 wt. %) was 2.5 mg/cm^2/da, the “Pyrethroid Release Rate” value ([3]; Polyurethane, pyrethroid 1 wt. %) was 0.9 mg/cm^2/da and the “Pyrethroid Release Rate” value ([3]; Polyurethane, pyrethroid 5 wt. %) was 4.4 mg/cm^2/da. For the same compound, the “Pyrethroid Release Rate” value ([3]; Polyurethane, pyrethroid 10 wt. %) was 8.3 mg/cm^2/da, the “Pyrethroid Release Rate” value ([3]; Polyurethane/EVA (50/50), pyrethroid 1 wt. %) was 2.6 mg/cm^2/da and the “Pyrethroid Release Rate” value ([3]; Polyurethane/EVA (50/50), pyrethroid 5 wt. %) was 7.2 mg/cm^2/da. The “Pyrethroid Release Rate” value ([3]; Polyurethane/EVA (50/50), pyrethroid 10 wt. %) was 9.1 mg/cm^2/da, the “release rate from barrier film” value ([4]; preferred eight-layer embodiment) was “less than 0.002 μg per square centimeter of film per day” and the “release rate from barrier film” value ([4]; six-layer embodiment) was “less than 0.002 μg per square centimeter of film per day”. The “temperature above which thermal decomposition and volatilization occurs” value ([5]; in the manufacturing process) was greater than 160 °C.
With `Cc1c(F)c(F)c(COC(=O)[C@@H]2[C@H](/C=C(\Cl)C(F)(F)F)C2(C)C)c(F)c1F` (racemic) [Tefluthrin] the “Release Rate” value ([1]; EVA 763, 10 percent pesticide) was 40.4 μg/cm^2/day, the “Release Rate” value [1, 9] was 27.0 μg/cm^2/day and the “Release Rate” value [1, 10] was 25.0 μg/cm^2/day. For the same compound, the “Release Rate” value [1, 11] was 6.4 μg/cm^2/day, the “Release Rate” value ([6]; Ethylvinyl acetate) was 4.3 mg/cm^2/da and the “Release Rate” value ([6]; Polyethylene) was 2.2 mg/cm^2/da. For the same compound, the “Release Rate” value ([2]; carbon black 0 wt. %) was 3.13 μg/cm^2/day and the “Release Rate” value ([2]; carbon black 10 wt. %) was 0.71 μg/cm^2/day.
For `CCOP(=S)(OCC)Oc1nc(Cl)c(Cl)cc1Cl` [Chlorpyrifos, chlorpyrifos], the “Release Rate” value ([7]; Epoxy A, chlorpyrifos content 5%) was less than 0.1 μg/cm^2/da, the “Release Rate” value ([7]; Epoxy B, chlorpyrifos content 10%) was 0.3 ± 0.1 μg/cm^2/da and the “Release Rate” value ([7]; Epoxy B, chlorpyrifos content 10%, listed as chlorpyrifos) was 0.3 μg/cm^2/da. The “Release Rate” value ([7]; PE + Wax, chlorpyrifos content 10%) was 1.9 ± 0.3 μg/cm^2/da, the “Release Rate” value ([7]; Polyurethane, chlorpyrifos content 5%, material exhibited excessive cracking) was 2.1 ± 1.4^b μg/cm^2/da and the “Release Rate” value ([7]; Silicone, chlorpyrifos content 5%) was 10.3 ± 3.5 μg/cm^2/da. For the same compound, the “Release Rate” value ([7]; Silicone, chlorpyrifos content 5%, listed as chlorpyrifos) was 10 μg/cm^2/da, the “Release Rate” value ([7]; Urethane, chlorpyrifos content 10%) was 1.0 ± 0.3 μg/cm^2/da and the “temperature above which excessive thermal decomposition occurred” value ([5]; polymer processing) was greater than 240 °C.
With `CC1(C)C(C=C(Cl)Cl)C1C(=O)OC(C#N)c1cccc(Oc2ccccc2)c1` (stereo not shown) [Cypermethrin] the “Release Rate” value ([1]; EVA 763, 10 percent pesticide) was 27.3 μg/cm^2/day, the “Release Rate” value [1, 9] was 4.6 μg/cm^2/day and the “Release Rate” value [1, 10] was 0.7 μg/cm^2/day. For the same compound, the “Release Rate” value [1, 11] was 0.4 μg/cm^2/day.
In the case of `CC1(C)[C@H](C(=O)O[C@H](C#N)c2cccc(Oc3ccccc3)c2)[C@@H]1C=C(Br)Br` [Deltamethrin], the “Release Rate” value ([1]; Alipmtic PS-49-100, 10 percent pesticide) is reported as 7.2 μg/cm^2/day, the “Release Rate” value ([1]; Aromatic 80A, 10 percent pesticide) is reported as 16.8 μg/cm^2/day and the “Release Rate” value ([1]; Pellethane 2102-55D, 10 percent pesticide) is reported as 8.0 μg/cm^2/day. For the same compound, the “Release Rate” value ([1]; Pellethane 2102-80A, 10 percent pesticide) was 8.8 μg/cm^2/day and the “Release Rate” value ([1]; S-113 urethane, 10% pesticide, no carbon black) was 25.2 μg/cm^2/day.
For `CC1(C)C(C=C(Cl)Cl)C1C(=O)OCc1cccc(Oc2ccccc2)c1` (stereo not shown) [Permethrin], the “Release Rate” value ([1]; EVA 763, 10 percent pesticide) was 28.5 μg/cm^2/day, the “Release Rate” value [1, 9] was 4.0 μg/cm^2/day and the “Release Rate” value [1, 10] was 1.3 μg/cm^2/day. For the same compound, the “Release Rate” value [1, 11] was 1.4 μg/cm^2/day, the “Release Rate” value ([6]; Ethylvinyl acetate) was 3.9 mg/cm^2/da and the “Release Rate” value ([6]; Polyethylene) was 1.4 mg/cm^2/da.
In the case of `C=C/C=C\CC1=C(C)[C@@H](OC(=O)[C@@H]2[C@@H](C=C(C)C)C2(C)C)CC1=O` [Pyrethrin I], the “Release Rate” value ([8]; Epoxy A) is reported as 0.5 ± 0.2 μg/cm^2/day, the “Release Rate” value ([8]; Epoxy B) is reported as 0.2 ± 0.1 μg/cm^2/day and the “Release Rate” value ([8]; Silicone) is reported as 21.2 ± 5.4 μg/cm^2/day. For the same compound, the “Release Rate” value ([8]; Urethane) was 15.7 ± 7.1 μg/cm^2/day.
